Where “and” joins values, the source holds several entries; their conditions need not be identical. Identical values can stand only once. Each block holds one compound with its values, some of them ahead of it.
System: Hs578T multi-cell spheroids, viability
Experiment: Anticancer human tumor Hs578T cell line growth inhibition [IpAb];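 further: drug exposure lasted 7 days before readout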
Settings: for viability, T/C: stronger effect = lower value
Excerpt: Combinatorial screen of targeted agents with ipatasertib and abemaciclib in multi-cell type tumor spheroids
A high-throughput screen of multi-cell type tumor spheroids was designed to identify active combinations of targeted small molecules and ipatasertib or abemaciclib. Complex spheroids include a stromal component modeled by human endothelial cells (HUVEC) and fibroblasts modeled by human mesenchymal stem cells (MSCs). The concentration ranges selected for each drug and investigational agent were based upon clinically achievable concentrations if the clinical Cmax of the agent was known.
Compounds. The drugs and investigational agents: ipatasertib (NSC767898), abemaciclib(NSC768073), selumetinib (NSC741078), trametinib (758246), adavosertib (NSC754352), everolimus (NSC733504), sapanisertib (NSC764658), vemurafenib (NSC761431), venetoclax (NSC766270), copanlisib (NSC809693), apelisib (NSC765974), palbociblib (NSC758247), vemurafenib (NSC761431), dabrafenib (NSC764134), ravoxertinib (NSC781343), BMS-387032 (NSC767048), sotorasib (NSC818433), talazoparib (NSC767125) and afursertib (NSC778305), were obtained from the National Cancer Institute (NCI) Developmental Therapeutics Program Chemical Repository. The FDA-approved anticancer drug set is available from the NCI Developmental Therapeutics Program. […] The stock solutions were prepared in dimethyl sulfoxide (DMSO, Sigma-Aldrich, St. Louis, MO, cat. D2650) at 800-fold the tested concentration and stored at -70 degrees C prior to their use. All drugs and investigational agents were tested over a range starting from a high concentration at or near the clinical Cmax and decreasing in half-log increments. If the clinical Cmax for an agent had not been determined, the highest concentration tested was 10 microM.
NCI60 Cell Culture. NCI60 cell lines were obtained from the NCI Developmental Therapeutics Program Tumor Repository. For each lot of cells, the Repository performed Applied Biosystems AmpFLSTR Identifiler testing with PCR amplification to confirm consistency with the published Identifier STR profile for each cell line. Cells were kept in continuous culture for no more than 20 passages. The optimal seeding densities for each of the cell lines at each time point assessed were determined prior to performing the concentration response studies. Briefly, the NCI60 human tumor lines were grown as monolayers in RPMI 1640 medium supplemented with 10% FBS and 2 mmol/L L-glutamine.
An additional 9 lines were from the NCI60 cell line panel including MDA-MB-231 breast carcinoma, MDA-MB-468 breast carcinoma, MCF7 breast carcinoma, Hs578T breast carcinoma, MALME-3M melanoma, SK-MEL-2 melanoma, SK-OV-3 ovarian carcinoma, DU-145 prostate carcinoma, PC-3 prostate carcinoma, all cell lines along with major genetic alterations are listed on Table 2. Pooled donor human umbilical vein endothelial cells (HUVEC, Lonza, cat. CC-2519) and human mesenchymal stem cells (hMSC, Lonza, cat. PT-2501) were purchased from Lonza (Walkersville, MD).
PDMR cell lines were grown in complete medium (DC medium): Dulbecco's modified Eagle's medium (DMEM)/F12 supplemented with 5% fetal bovine serum (FBS), 2 mM L-glutamine, 100 U/mL penicillin and 100 µg/ml streptomycin, 0.4 µg/ml hydrocortisone, 10 ng/ml epidermal growth factor (EGF) recombinant human protein, 24 µg/mL adenine, and 0.1 mg/mL primocin. During culture from frozen stock vials, PDMR cells were cultured in the same medium containing 10 µM Y-27632 (see Table 3). The PDCs were cultured in complete DMEM/F12 media without 10 microM Y-27632 dihydrochloride for at least two passages prior to the screen. The pooled donor HUVEC and hMSC were cultured in endothelial cell growth medium 2 (PromoCell, Heidelberg, Germany, cat. C-22011) and mesenchymal stem cell growth medium 2 (PromoCell, cat. C-28009), respectively. For all experiments, HUVEC and hMSC were used at passages </=5.
[…]

Compound: Cc1nc(NC(=O)N2CCCC2C(N)=O)sc1-c1ccnc(C(C)(C)C(F)(F)F)c1 (stereo not given)
viability, T/C (compound 0.0316 µM): 96.6% and 110%
viability, T/C (compound 0.1 µM): 93.1% and 95.3%
viability, T/C (compound 0.316 µM): 79.6% and 79.2%
viability, T/C (compound 1 µM): 60% and 58.8%
viability, T/C (compound 3.16 µM): 42.5% and 45.5%
viability, T/C (compound 10 µM): 13.9% and 16.4%
IC50 (curve of compound): 1930 nM and 1900 nM

Compound: Cn1cnc2c(F)c(Nc3ccc(Br)cc3Cl)c(C(=O)NOCCO)cc21
viability, T/C (compound 0.00949 µM): 102% and 100%
viability, T/C (compound 0.03 µM): 104% and 97.5%
viability, T/C (compound 0.0949 µM): 104% and 96%
viability, T/C (compound 0.3 µM): 89.2% and 88.1%
viability, T/C (compound 0.949 µM): 79.1% and 75%
viability, T/C (compound 3 µM): 56.1% and 48.7%
IC50 (curve of compound): > 3000 nM and 2850 nM

Compound: Cn1cnc2c(F)c(Nc3ccc(Br)cc3Cl)c(C(=O)NOCCO)cc21 + CC(C)NCC(C(=O)N1CCN(c2ncnc3c2C(C)CC3O)CC1)c1ccc(Cl)cc1
IC50 (curve of first compound, second compound 0.1 µM): 2310 nM
IC50 (curve of first compound, second compound 0.316 µM): 1200 nM
IC50 (curve of first compound, second compound 1 µM): 400 nM
IC50 (curve of first compound, second compound 3.16 µM): 123 nM
IC50 (curve of first compound, second compound 10 µM): 26.5 nM
viability, T/C (second compound 0.1 µM, first compound 0.00949 µM): 96.2%
viability, T/C (second compound 0.1 µM, first compound 0.03 µM): 91.8%
viability, T/C (second compound 0.1 µM, first compound 0.0949 µM): 85.3%
viability, T/C (second compound 0.1 µM, first compound 0.3 µM): 84.2%
viability, T/C (second compound 0.1 µM, first compound 0.949 µM): 74.8%
viability, T/C (second compound 0.1 µM, first compound 3 µM): 42.8%
viability, T/C (second compound 0.316 µM, first compound 0.00949 µM): 87.7%
viability, T/C (second compound 0.316 µM, first compound 0.03 µM): 86.2%
viability, T/C (second compound 0.316 µM, first compound 0.0949 µM): 83.4%
viability, T/C (second compound 0.316 µM, first compound 0.3 µM): 64.9%
viability, T/C (second compound 0.316 µM, first compound 0.949 µM): 58%
viability, T/C (second compound 0.316 µM, first compound 3 µM): 30.4%
viability, T/C (second compound 1 µM, first compound 0.00949 µM): 77%
viability, T/C (second compound 1 µM, first compound 0.03 µM): 72%
viability, T/C (second compound 1 µM, first compound 0.0949 µM): 63.1%
viability, T/C (second compound 1 µM, first compound 0.3 µM): 54.4%
viability, T/C (second compound 1 µM, first compound 0.949 µM): 39.2%
viability, T/C (second compound 1 µM, first compound 3 µM): 19.3%
viability, T/C (second compound 3.16 µM, first compound 0.00949 µM): 53.8%
viability, T/C (second compound 3.16 µM, first compound 0.03 µM): 52.2%
viability, T/C (second compound 3.16 µM, first compound 0.0949 µM): 47.9%
viability, T/C (second compound 3.16 µM, first compound 0.3 µM): 49.4%
viability, T/C (second compound 3.16 µM, first compound 0.949 µM): 35.2%
viability, T/C (second compound 3.16 µM, first compound 3 µM): 12.4%
viability, T/C (second compound 10 µM, first compound 0.00949 µM): 52.6%
viability, T/C (second compound 10 µM, first compound 0.03 µM): 50.1%
viability, T/C (second compound 10 µM, first compound 0.0949 µM): 42.2%
viability, T/C (second compound 10 µM, first compound 0.3 µM): 43.1%
viability, T/C (second compound 10 µM, first compound 0.949 µM): 23.2%
viability, T/C (second compound 10 µM, first compound 3 µM): 5.18%

Further lines, with some results ahead:

IC50 (curve of compound): 2180 nM and 2650 nM
Compound: Cn1ncc(Cl)c1-c1cc(C(=O)NC(CN)Cc2cccc(F)c2)sc1Cl (stereo not given)
viability, T/C (compound 0.0316 µM): 90.4% and 98.8%
viability, T/C (compound 0.1 µM): 91% and 85.1%
viability, T/C (compound 0.316 µM): 72.4% and 75.8%
viability, T/C (compound 1 µM): 60.7% and 63.9%
viability, T/C (compound 3.16 µM): 49.9% and 56.1%
viability, T/C (compound 10 µM): 0.22% and 0.31%

IC50 (curve of compound): 5130 nM and 5580 nM
Compound: Cn1nccc1Nc1nccc(-c2ccn(C(CO)c3ccc(Cl)c(F)c3)c(=O)c2)n1 (stereo not given)
viability, T/C (compound 0.0316 µM): 104% and 107%
viability, T/C (compound 0.1 µM): 114% and 115%
viability, T/C (compound 0.316 µM): 118% and 128%
viability, T/C (compound 1 µM): 90.7% and 94%
viability, T/C (compound 3.16 µM): 70.3% and 65.2%
viability, T/C (compound 10 µM): 24.4% and 35.9%

IC50 (curve of compound): > 100 nM
Compound: Cn1ncnc1[C@H]1c2n[nH]c(=O)c3cc(F)cc(c23)N[C@@H]1c1ccc(F)cc1
viability, T/C (compound 0.000316 µM): 94% and 104%
viability, T/C (compound 0.001 µM): 101% and 102%
viability, T/C (compound 0.00316 µM): 88% and 103%
viability, T/C (compound 0.01 µM): 91.7% and 96.2%
viability, T/C (compound 0.0316 µM): 90.2% and 96.4%
viability, T/C (compound 0.1 µM): 82.2% and 95.2%

Source: PubChem BioAssay AID2060331 (Molecular Pharmacology Branch, DTP, NCI, 2025)
